# In US20240124418A1 (BioTheryX, Inc., priority 2020, published 2024):
# Tested on: TNF-α
# Assay: Cell-based TNF-α inhibition assay (LPS-induced PBMCs, Meso Scale)
# Details: PBMC, PBMCs pretreated 1 h, LPS 100 ng/mL 18-24 h, percentage of stimulated DMSO control; for inhibition at 0.1 µM: compound concentration 0.1 μM; for inhibition at 1 µM: compound concentration 1 μM
# Procedure: Example B1. Cell-Based TNF-α Inhibition Assay
# Frozen primary blood mononuclear cells (PBMCs) were quick thawed, washed once with RPMI 1640 media supplemented with 10% fetal bovine serum, 1% penicillin, and 1% streptomycin, and plated in a 96 well plate at 200,000 cells per well. The cells were pretreated with DMSO only as a control or a compound for 1 h, and then induced with LPS (lipopolysaccharide) (100 ng/mL) for 18-24 h. The supernatant was analyzed for TNF-α using the Meso Scale assay. Compound activity was determined as a percentage of the stimulated DMSO control. The results are summarized in Table 1, where A represents a percent inhibition value ≥60%; B represents a percent inhibition value <60% and ≥40%; C represents a percent inhibition value <40% and ≥20%; and D represents a single percent inhibition value <20%.
SMILES,inhibition at 0.1 µM [%],inhibition at 1 µM [%]
"CCOc1cc([C@@H](CS(C)(=O)=O)N2C(=O)c3cccc(NC(=O)CCCCCCCCCN[C@H](C(=O)N4C[C@H](O)C[C@H]4C(=O)NCc4ccc(-c5scnc5C)cc4)C(C)(C)C)c3C2=O)ccc1OC [Compound A65, (2S,4R)-1-[(2S)-2-{[9-({2-[(1S)-1-(3-Ethoxy-4-methoxyphenyl)-2-methanesulfonylethyl]-1,3-dioxo-2,3-dihydro-1H-isoindol-4-yl}carbamoyl)nonyl]amino}-3,3-dimethylbutanoyl]-4-hydroxy-N-{[4-(4-methyl-1,3-thiazol-5-yl)phenyl]methyl}pyrrolidine-2-carboxamide]",≥ 60,≥ 60
"O=C1CCC(N2Cc3c(cc(F)cc3C3CCN(CCCCCOc4cc(C(=O)Nc5c(Cl)cncc5Cl)ccc4OC(F)F)CC3)C2=O)C(=O)N1 (stereo not drawn) [Compound B5, N-(3,5-Dichloropyridin-4-yl)-4-(difluoromethoxy)-3-((5-(4-(2-(2,6-dioxo-piperidin-3-yl)-6-fluoro-1-oxoisoindolin-4-yl)piperidin-1-yl)pentyl)oxy)benzamide]",≥ 60,–
"CCOc1cc([C@@H](CS(C)(=O)=O)N2C(=O)c3cccc(NC(=O)CCCCCN4CCN(CC(=O)Nc5ccc(C6CCC(=O)NC6=O)cc5)CC4)c3C2=O)ccc1OC (stereo partly drawn) [Compound A83, 6-[4-({[4-(2,6-Dioxopiperidin-3-yl)phenyl]carbamoyl}methyl)piperazin-1-yl]-N-{2-[(1S)-1-(3-ethoxy-4-methoxyphenyl)-2-methanesulfonylethyl]-1,3-dioxo-2,3-dihydro-1H-isoindol-4-yl}hexanamide]",≥ 60,≥ 60
"CCOc1cc([C@@H](CS(C)(=O)=O)N2C(=O)c3cccc(NC(=O)CCCCCCNCc4ccc(OCc5scc6c5CN([C@H]5CCC(=O)NC5=O)C6=O)cc4)c3C2=O)ccc1OC [Compound A38, 7-((4-((5-((S)-2,6-Dioxopiperidin-3-yl)-4-oxo-5,6-dihydro-4H-thieno[3,4-c]pyrrol-1-yl)methoxy)benzyl)amino)-N-(2-((S)-1-(3-ethoxy-4-methoxyphenyl)-2-(methylsulfonyl)ethyl)-1,3-dioxoisoindolin-4-yl)heptanamide]",≥ 60,–
"CCOc1cc([C@@H](CS(C)(=O)=O)N2C(=O)c3cc(CCCN4CCC(c5cc(F)cc6c5CN(C5CCC(=O)NC5=O)C6=O)CC4)cc(NC(C)=O)c3C2=O)ccc1OC (stereo partly drawn) [Compound A5, N-(6-(3-(4-(2-(2,6-Dioxopiperidin-3-yl)-6-fluoro-1-oxoisoindolin-4-yl)piperidin-1-yl)propyl)-2-((S)-1-(3-ethoxy-4-methoxyphenyl)-2-(methylsulfonyl)ethyl)-1,3-dioxoisoindolin-4-yl)acetamide]",≥ 60,–
"CCOc1cc([C@@H](CS(C)(=O)=O)N2C(=O)c3cccc(OCCCCCCCCCNCc4ccc(OCc5scc6c5CN(C5CCC(=O)NC5=O)C6=O)cc4)c3C2=O)ccc1OC (stereo partly drawn) [Compound A50, 4-[(9-{[(4-{[5-(2,6-Dioxopiperidin-3-yl)-4-oxo-4H,5H,6H-thieno[3,4-c]pyrrol-1-yl]methoxy}phenyl)methyl]amino}nonyl)oxy]-2-[(1S)-1-(3-ethoxy-4-methoxyphenyl)-2-methane-sulfonylethyl]-2,3-dihydro-1H-isoindole-1,3-dione]",≥ 60,≥ 60
"CCOc1cc([C@@H](CS(C)(=O)=O)N2C(=O)c3cccc(NC(=O)CCCCCCCCn4cc(-c5cc6c(cc5F)C(=O)N(C5CCC(=O)NC5=O)C6)nn4)c3C2=O)ccc1OC (stereo partly drawn) [Compound A23, 9-{4-[2-(2,6-Dioxopiperidin-3-yl)-6-fluoro-1-oxo-2,3-dihydro-1H-isoindol-5-yl]-1H-1,2,3-triazol-1-yl}-N-{2-[(1S)-1-(3-ethoxy-4-methoxyphenyl)-2-methanesulfonylethyl]-1,3-dioxo-2,3-dihydro-1H-isoindol-4-yl}nonanamide]",≥ 60,≥ 60
"CCOc1cc([C@@H](CS(C)(=O)=O)N2C(=O)c3cccc(NCCCCCCCCCN4CCC(c5cc6c(cc5F)C(=O)N(C5CCC(=O)NC5=O)C6)CC4)c3C2=O)ccc1OC (stereo partly drawn) [Compound A25, 4-[(9-{4-[2-(2,6-Dioxopiperidin-3-yl)-6-fluoro-1-oxo-2,3-dihydro-1H-isoindol-5-yl]piperidin-1-yl}nonyl)amino]-2-[(1S)-1-(3-ethoxy-4-methoxyphenyl)-2-methanesulfonylethyl]-2,3-dihydro-1H-isoindole-1,3-dione]",≥ 60,≥ 60
"CCOc1cc([C@@H](CS(C)(=O)=O)N2C(=O)c3cc(CCCCCCCCCCCCC(=O)N[C@H](C(=O)N4C[C@H](O)C[C@H]4C(=O)NCc4ccc(-c5scnc5C)cc4)C(C)(C)C)cc(NC(C)=O)c3C2=O)ccc1OC [Compound A61, (2S,4R)-1-[(2S)-2-(13-{7-Acetamido-2-[(1S)-1-(3-ethoxy-4-methoxyphenyl)-2-methanesulfonylethyl]-1,3-dioxo-2,3-dihydro-1H-isoindol-5-yl}tridecanamido)-3,3-dimethylbutanoyl]-4-hydroxy-N-{[4-(4-methyl-1,3-thiazol-5-yl)phenyl]methyl}pyrrolidine-2-carboxamide]",≥ 60,≥ 60
"CCOc1cc([C@@H](CS(C)(=O)=O)N2C(=O)c3cccc(CCCCCCCCCCN4CCC(c5cc6c(cc5F)C(=O)N(C5CCC(=O)NC5=O)C6)CC4)c3C2=O)ccc1OC (stereo partly drawn) [Compound A27, 4-(10-{4-[2-(2,6-Dioxopiperidin-3-yl)-6-fluoro-1-oxo-2,3-dihydro-1H-isoindol-5-yl]piperidin-1-yl}decyl)-2-[(1S)-1-(3-ethoxy-4-methoxyphenyl)-2-methanesulfonylethyl]-2,3-dihydro-1H-isoindole-1,3-dione]",≥ 60,≥ 60
"O=C1CCC(N2Cc3c(csc3COc3ccc(CNCCCCCCCOc4cc(C(=O)Nc5c(Cl)cncc5Cl)ccc4OC(F)F)cc3)C2=O)C(=O)N1 (stereo not drawn) [Compound B18, N-(3,5-Dichloropyridin-4-yl)-4-(difluoromethoxy)-3-((7-((4-((5-(2,6-dioxo-piperidin-3-yl)-4-oxo-5,6-dihydro-4H-thieno[3,4-c]pyrrol-1-yl)methoxy)benzyl)amino)heptyl)-oxy)benzamide]",≥ 60,≥ 60
"O=C1CCC(N2Cc3c(cc(F)cc3C3CCN(CCCCCCCCCOc4ccc(C(=O)Nc5c(Cl)cncc5Cl)cc4OCC4CC4)CC3)C2=O)C(=O)N1 (stereo not drawn) [Compound B12, 3-(Cyclopropylmethoxy)-N-(3,5-dichloropyridin-4-yl)-4-((9-(4-(2-(2,6-dioxopiperidin-3-yl)-6-fluoro-1-oxoisoindolin-4-yl)piperidin-1-yl)nonyl)oxy)benzamide]",20 to 40,–
"CCOc1cc([C@@H](CS(C)(=O)=O)N2C(=O)c3cccc(NC(=O)CCCCCN4CCN(CC(=O)Nc5cccc(C6CCC(=O)NC6=O)c5)CC4)c3C2=O)ccc1OC (stereo partly drawn) [Compound A87, 6-[4-({[3-(2,6-Dioxopiperidin-3-yl)phenyl]carbamoyl}methyl)piperazin-1-yl]-N-{2-[(1S)-1-(3-ethoxy-4-methoxyphenyl)-2-methanesulfonylethyl]-1,3-dioxo-2,3-dihydro-1H-isoindol-4-yl}hexanamide]",≥ 60,≥ 60
"CCOc1cc([C@@H](CS(C)(=O)=O)N2C(=O)c3cccc(CCCCCCCCCCC(=O)N[C@H](C(=O)N4C[C@H](O)C[C@H]4C(=O)NCc4ccc(-c5scnc5C)cc4)C(C)(C)C)c3C2=O)ccc1OC [Compound A62, (2S,4R)-1-[(2S)-2-(11-{2-[(1S)-1-(3-Ethoxy-4-methoxyphenyl)-2-methanesulfonylethyl]-1,3-dioxo-2,3-dihydro-1H-isoindol-4-yl}undecanamido)-3,3-dimethylbutanoyl]-4-hydroxy-N-{[4-(4-methyl-1,3-thiazol-5-yl)phenyl]methyl}pyrrolidine-2-carboxamide]",≥ 60,≥ 60
"CCOc1cc([C@@H](CS(C)(=O)=O)N2C(=O)c3cccc(NC(=O)CCCCCCCCCN4CCN(CC(=O)Nc5cccc(C6CCC(=O)NC6=O)c5)CC4)c3C2=O)ccc1OC (stereo partly drawn) [Compound A88, 10-[4-({[3-(2,6-Dioxopiperidin-3-yl)phenyl]carbamoyl}methyl)piperazin-1-yl]-N-{2-[(1S)-1-(3-ethoxy-4-methoxyphenyl)-2-methanesulfonylethyl]-1,3-dioxo-2,3-dihydro-1H-isoindol-4-yl}decanamide]",≥ 60,≥ 60
"CCOc1cc([C@@H](CS(C)(=O)=O)N2C(=O)c3cccc(NC(=O)CCCCCCCCCCOc4cc(-c5scnc5C)ccc4CNC(=O)[C@@H]4C[C@@H](O)CN4C(=O)[C@@H](NC(C)=O)C(C)(C)C)c3C2=O)ccc1OC [Compound A75, (2S,4R)-1-[(2S)-2-Acetamido-3,3-dimethylbutanoyl]-N-[(2-{[10-({2-[(1S)-1-(3-ethoxy-4-methoxyphenyl)-2-methanesulfonylethyl]-1,3-dioxo-2,3-dihydro-1H-isoindol-4-yl}-carbamoyl)decyl]oxy}-4-(4-methyl-1,3-thiazol-5-yl)phenyl)methyl]-4-hydroxypyrrolidine-2-carboxamide]",≥ 60,≥ 60
"CCOc1cc([C@@H](CS(C)(=O)=O)N2C(=O)c3cc(CCCCCCCCCCCCNc4cccc(NC5CCC(=O)NC5=O)c4)cc(NC(C)=O)c3C2=O)ccc1OC (stereo partly drawn) [Compound A89, N-{6-[12-({3-[(2,6-Dioxopiperidin-3-yl)amino]phenyl}amino)dodecyl]-2-[(1S)-1-(3-ethoxy-4-methoxyphenyl)-2-methanesulfonylethyl]-1,3-dioxo-2,3-dihydro-1H-isoindol-4-yl}acetamide]",≥ 60,≥ 60
